From a compilation of properties of binary mixtures (doi:10.1021/acs.iecr.1c02970)

Experiment: xn = mol fraction of the nth substance listed
Conditions: 100 kPa

CC[n+]1ccn(C)c1.CS(=O)(=O)[O-] + O
Conditions | electrical conductivity [S/m] | speed of sound [m/s] | viscosity [mPa·s]
318.15 K, x1 = 0.0181 | – | 1615.9 | –
318.15 K, x1 = 0.056 | – | 1727.8 | –
318.15 K, x1 = 0.0749 | – | 1763.5 | –
318.15 K, x1 = 0.113 | – | 1806.2 | –
318.15 K, x1 = 0.2741 | – | 1811.2 | –
318.15 K, x1 = 0.3671 | – | 1791.3 | –
318.15 K, x1 = 0.489 | – | 1766.7 | –
318.15 K, x1 = 0.6064 | – | 1748.6 | –
318.15 K, x1 = 0.7708 | – | 1731.9 | –
318.15 K, x1 = 0.9157 | – | 1719.1 | –
318.15 K, x2 = 0.0082 | – | 1717.9 | –
323.15 K, x1 = 0.002 | 1.2 | – | –
323.15 K, x1 = 0.0165 | 5.73 | – | –
323.15 K, x1 = 0.0181 | – | 1616.5 | –
323.15 K, x1 = 0.028 | 7.33 | – | –
323.15 K, x1 = 0.056 | – | 1721.3 | –
323.15 K, x1 = 0.0674 | – | – | 1.468
323.15 K, x1 = 0.07 | 8.43 | – | –
323.15 K, x1 = 0.0749 | – | 1754.8 | –
323.15 K, x1 = 0.0945 | – | 1779.5 | –
323.15 K, x1 = 0.1089 | – | – | 2.428
323.15 K, x1 = 0.1122 | 7.28 | – | –
323.15 K, x1 = 0.1848 | – | – | 4.37
323.15 K, x1 = 0.2741 | – | 1799 | –
323.15 K, x1 = 0.489 | – | 1754.8 | –
323.15 K, x1 = 0.6951 | – | 1727.9 | –
323.15 K, x1 = 0.7708 | – | 1720 | –
323.15 K, x1 = 0.9157 | – | 1707.2 | –
323.15 K, x1 = 0.9357 | – | – | 44.06
323.15 K, x2 = 0.0082 | – | 1705.9 | –
328.15 K, x1 = 0.0181 | – | 1616.2 | –
328.15 K, x1 = 0.0375 | – | 1672.1 | –
328.15 K, x1 = 0.056 | – | 1714.4 | –
328.15 K, x1 = 0.0749 | – | 1745.8 | –
328.15 K, x1 = 0.0945 | – | 1769 | –
328.15 K, x1 = 0.113 | – | 1783.9 | –
328.15 K, x1 = 0.1833 | – | 1800.7 | –
328.15 K, x1 = 0.2741 | – | 1786.7 | –
328.15 K, x1 = 0.489 | – | 1743 | –
328.15 K, x1 = 0.6064 | – | 1725 | –
328.15 K, x1 = 0.6951 | – | 1716.1 | –
328.15 K, x1 = 0.7708 | – | 1707.9 | –
328.15 K, x1 = 0.9157 | – | 1695.4 | –
333.15 K, x1 = 0.002 | 1.38 | – | –
333.15 K, x1 = 0.0165 | 6.66 | – | –
333.15 K, x1 = 0.0177 | – | – | 0.642
333.15 K, x1 = 0.0181 | – | 1615.2 | –
333.15 K, x1 = 0.028 | 8.53 | – | –
333.15 K, x1 = 0.0357 | – | – | 0.848
333.15 K, x1 = 0.0375 | – | 1667.4 | –
333.15 K, x1 = 0.0489 | 9.85 | – | –
333.15 K, x1 = 0.0674 | – | – | 1.214
333.15 K, x1 = 0.07 | 9.96 | – | –
333.15 K, x1 = 0.0749 | – | 1736.4 | –
333.15 K, x1 = 0.0945 | – | 1758.3 | –
333.15 K, x1 = 0.1089 | – | – | 1.965
333.15 K, x1 = 0.1122 | 8.86 | – | –
333.15 K, x1 = 0.113 | – | 1772.4 | –
333.15 K, x1 = 0.1848 | – | – | 3.473
333.15 K, x1 = 0.2034 | 6.33 | – | –
333.15 K, x1 = 0.2741 | – | 1774.2 | –
333.15 K, x1 = 0.3752 | 3.67 | – | –
333.15 K, x1 = 0.4263 | – | – | 9.38
333.15 K, x1 = 0.6064 | – | 1713.3 | –
333.15 K, x1 = 0.6951 | – | 1704.2 | –
333.15 K, x1 = 0.7708 | – | 1696.1 | –
333.15 K, x1 = 0.9157 | – | 1683.7 | –
333.15 K, x1 = 0.9339 | 1.16 | – | –
333.15 K, x1 = 0.9357 | – | – | 29.98
333.15 K, x2 = 0.0082 | – | 1682.3 | –
343.15 K, x1 = 0.002 | 1.59 | – | –
343.15 K, x1 = 0.0177 | – | – | 0.551
343.15 K, x1 = 0.0181 | – | 1610.8 | –
343.15 K, x1 = 0.028 | 9.78 | – | –
343.15 K, x1 = 0.0357 | – | – | 0.735
343.15 K, x1 = 0.0375 | – | 1656.3 | –
343.15 K, x1 = 0.056 | – | 1690.9 | –
343.15 K, x1 = 0.0674 | – | – | 1.026
343.15 K, x1 = 0.07 | 11.6 | – | –
343.15 K, x1 = 0.0749 | – | 1716.8 | –
343.15 K, x1 = 0.0945 | – | 1736.2 | –
343.15 K, x1 = 0.1089 | – | – | 1.629
343.15 K, x1 = 0.1122 | 10.4 | – | –
343.15 K, x1 = 0.113 | – | 1748.7 | –
343.15 K, x1 = 0.1833 | – | 1762.7 | –
343.15 K, x1 = 0.1848 | – | – | 2.831
343.15 K, x1 = 0.2034 | 7.58 | – | –
343.15 K, x1 = 0.2741 | – | 1749.3 | –
343.15 K, x1 = 0.3671 | – | 1730.3 | –
343.15 K, x1 = 0.3752 | 4.5 | – | –
343.15 K, x1 = 0.489 | – | 1707.6 | –
343.15 K, x1 = 0.6951 | – | 1680.7 | –
343.15 K, x1 = 0.9157 | – | 1660.7 | –
343.15 K, x1 = 0.9339 | 1.55 | – | –
343.15 K, x1 = 0.9357 | – | – | 21.61
343.15 K, x2 = 0.0082 | – | 1659 | –
353.15 K, x1 = 0.002 | 1.81 | – | –
353.15 K, x1 = 0.0177 | – | – | 0.475
353.15 K, x1 = 0.028 | 11.1 | – | –
353.15 K, x1 = 0.0357 | – | – | 0.625
353.15 K, x1 = 0.07 | 13.2 | – | –
353.15 K, x1 = 0.1089 | – | – | 1.37
353.15 K, x1 = 0.1122 | 12.1 | – | –
353.15 K, x1 = 0.2034 | 8.9 | – | –
353.15 K, x1 = 0.9357 | – | – | 16.3
